Laboratory results published in patent publication EP0273199A2, “Uses of 3,4-diphenyl piperidine derivatives or medicines, 3,4-diphenyl piperidine derivatives, and process for their preparation” (LABORATOIRES HOECHST S.A., priority 1986, dated 1988).
Values joined by “and” are separate entries in the source; they are usually repeats but may differ in a detail not shown here. Equal values may be shown once. Where a name gives a salt, the structure may show the parent alone. Read-outs that look alike come from different tables or passages of the source.

Key:
[1] = system: L-5-Hydroxytryptophan; assay: Potentiation of L-5-hydroxytryptophan effects (head twitches, tremor); type: in vivo, Maus; conditions: mouse
Procedure: L-5 HTP induziert an der Maus ruckartige Bewegungen des Kopfes (Kopfzuckungen). Die zu untersuchenden Substanzen werden den Tieren (10 Mäuse pro Dosis) intraperitoneal 30 Minuten vor dem L-5 HTP (4 mg/kg intraperitoneal) verabreicht. Die ruckartigen Kopfbewegungen und der Tremor werden 1 Minutre lang alle 10 Minuten im Verlauf einer Stunde bewertet. Desimipramin und Indalpin sind die Kontrol-(Vergleichs-)verbindungen. Ein antidepressiver Effekt zeigt sich durch eine Zunahme der ruckartigen Kopfbewegungen und des Tremors.

[2] = system: Maus; assay: Hot plate test (licking and jumping), analgesia; type: in vivo
Procedure: Heizplattentest: Lecken und Springen, wie von Jacob und Blozovski beschrieben (Arch. Int. Pharmacodyn. 133, 296-209, 1961).
Die in Sekunden ausgedrückten Reaktionszeiten auf einer Heizplatte werden unter Berücksichtigung des Leckens der Vorderpfoten und Springen des Tieres als Kriterien bewertet. Die beiden Reaktionen werden am selben, anfänglich untrainierten Tier mit einer maximalen Ansprechzeit (Obergrenze) von 240 Sekunden beobachtet. Die Temperatur der Platte wird auf 56,6°C gehalten.
Morphin als positive Kontrolle wird subkutan und die übrigen Substanzen (mg/kg) werden intraperitoneal 30 Minuten vor dem Test verabreicht. Positives Ansprechen zeigt sich in einer Zunahme der Reaktionszeit.
Wird der schadensverhütenden Wirkung eine Substanz durch Naloxon entegengewirkt, so kann man schließen, daß die Substanz tatsächlich eine analgetische Wirkung besitzt.

[3] = system: Toxizität des Yohimbins; assay: Potentiation of yohimbine toxicity; type: in vivo, Maus
Procedure: Wirkung auf die Toxizität des Yohimbins
Zur Zeit 0 erhalten die Mäuse entweder destilliertes Wasser oder verschiedene zu untersuchende Verbindungen i.p. 30 Minuten danach verabreicht man ihnen subkutan eine infratoxische Dosis von 25 mg/kg Yohimbinchlorhydrat.
Die Mortalität wird jede Stunde über einen Zeitraum von 4 Stunden verfolgt und dann nach 24 Stunden notiert.
Die eine antidepressive Aktivität besitzenden Produkte verursachen eine Potenzierung der Toxizität des Yohimbins.

[4] = system: Apomorphin 16 mg/kg; assay: Antiapomorphine activity (apomorphine 16 mg/kg s.c., hypothermia); type: in vivo, Maus; conditions: ip
Procedure: Zur Zeit 0 nach Ausgleich der Reaktaltemperaturen werden die Mäuse (6 pro Gruppe) in deren Beobachtung gestattende Einzelkäfige (11 x 3,5 x 4 cm) eingeetzt. 30 Minuten nach i.p. bzw. p.o. Verabreichung der Testsubstanz erhalten sie Apomorphin subkutan in einer Dosis von 16 mg/kg. Die Rektaltemperatur wird 30 Minuten nach dem Apomorphin gemessen. Die Kontrolltiere erhalten destilliertes Wasser statt der zu untersuchenden Verbindungen. Die bei diesen Kontrolltieren, die 16 mg/kg Apomorphin erhalten haben, beobachtete Hypothermie liegt im Durchschnitt bei 33°C. Für jede Verbindungsdosis berechnet man die prozentuale Hemmung der Hypothermie.

[5] = system: Motoraktivität; assay: Actimetry (motor activity, photocell actimeter); type: in vivo, Maus
Description: Die Motoraktivität wird mittels Photozellenaktimetern bestimmt (Boissier und Simon, Arch. Int. Pharmacodyn. 1965, 158, 212-221).
Die Mäuse (10 oder ein Vielfaches von 10 pro Gruppe) werden unmittelbar nach i.p. Verabreichung der zu untersuchenden Verbindungen in das Aktimeter eingesetzt. Die Motoraktivität wird danach bis zur 60. Minute gemessen. De Zähler werden nach 30 Minuten abgelesen und dann auf 0 zurückgestellt und im Verlauf von 30 Minuten alle 10 Minuten abgelesen.
Die Beweglichkeit der mit den verschiedenen Verbindungen behandelten Tiere wird mit derjenigen einer destilliertes Wasser erhaltenden Kontrollgruppe verglichen.
Die eine psychostimulierende Aktivität besitzenden Produkte verursachen eine Zunahme der Beweglichkeit.

[6] = system: Maus; assay: Behavioural despair test (Porsolt forced swimming); type: in vivo; conditions: mouse; for Dauer der Unbeweglichkeit: 30 min before test
Description: Test auf verzweifeltes Verhalten, wie von Porsolt u.a. (Arch. Int, Pharmacodyn. Ther. 229, 327 - 336, 1977) beschrieben.
Die Verbindungen werden intraperetoneal 30 Minuten vor dem Test verabreicht, und die Tiere werden vor dem erzwungenen Schwimmtest isoliert gehalten. Man bewertet die Dauer der Unbeweglichkeitsperioden in Sekunden ausgedrückt, die von der 2. bis zur 6. Minute nach dem Einsetzen des Tieres in Wasser gezählt werden.

[7] = system: durch Reserpin induzierten Hypothermie; assay: Antireserpine activity (reserpine-induced hypothermia); type: in vivo, Maus; conditions: ip
Procedure: Zur Zeit 0 erhalten die Mäuse intraperitoneal Reserpin (2,5 mg/kg).
4 Stunden danach, wenn die Hypothermie genügend stark erscheint (30 bis 33°C), verabreicht man die verschiedenen zu untersuchenden Verbindungen i.p. oder p.o. Alle 30 Minuten über einen Zeitraum von 2 Stunden mißt man die Rektaltemperatur mit einer auf konstante Tiefe eingeführten, ein Thermoelement tragenden Sonde. Die Rektaltemperatur der mit verschiedenen erfindungsgemäßen Verbindungen behandelten Tiere wird mit der Temperatur einer Kontrollgruppe verglichen, die destilliertes Wasser auf die gleiche Weise wie die untersuchten Verbindungen erhält.
Die Akinesie (fehlende Bewegungen) und Ptose (Öffnungsgrad des Augenlids von 0 bis 4 nach Rubin u.a 1957) werden ebenfalls alle 30 Minuten über einen Zeitraum von 2 Stunden bewertet.
Die eine antidepressive Aktivität besitzenden Produkte wirken der durch Reserpin induzierten Hypothermie entgegen. Für jede Dosis der verabreichten Verbindung berechnet man die prozentuale Hemmung der Hypothermie.

[8] = system: Maus; assay: Tail suspension test; type: in vivo; conditions: for minimal effective dose: ip; for % Antagonismus / Dauer der Unbeweglichkeit: mouse
Description: Schwanzaufhängungstest an der Maus wie von Stéru u.a. beschrieben (Psychopharmacology 85, 367-370, 1985).
Die Substanzen werden intraperitoneal 30 Minuten vor dem Test verabreicht und die Tiese isoliert (10 Mäuse pro Dosis).
Man bewertet die Dauer der Unbeweglichkeit, ausgedrückt in Sekunden über die 6 Minuten des Tests. Man untersucht auf eine Verkürzung dieser Unbeweglichkeitszeit.

[9] = system: Apomorphin 1 mg.kg^-1 s.c.; assay: Apomorphine 1 mg/kg s.c. antagonism (no method given); type: in vivo; conditions: ip, Tabelle Ib; read-out: Erste wirksame Dosis Apomorphin 1 mg.kg^-1 s.c.
[10] = system: durch Oxotremorin induzierten Hypothermie; assay: Antioxotremorine activity (oxotremorine-induced hypothermia); type: in vivo, Maus; conditions: Mus musculus, ip, read-out: Erste wirksame Dosis Oxotremorin
Procedure: Nach Ausgleich der Rektaltemperaturen erhalten Mäuse (6 pro Gruppe) entweder destillietes Wasser oder die verschiedenen zu untersuchenden Verbindungen i.p.
30 Minuten danach verabreicht man intraperitoneal Oxotremorin in einer Dosis von 0,5 mg/kg.
Die Mäuse werden dan beobachtet: Tremor wird je nach der Intensität von 0 bis 3 bewertet, und die Akinesie wird alle 10 Minuten über einen Zeitraum von 30 Minuten auf Vorliegen oder Fehlen bestimmt.
Außerdem beobachtet man 2 Stunden lang das Erscheinen peripherer Symptome (Tränen, Darmentleerung). Die Rektaltemperatur wird alle 30 Minuten über eine Zeitraum von 2 Stunden nach der Verabreichung des Oxotremorins gemessen.
Die eine antidepressive Aktivität besitzenden Produkte wirken der durch Oxotremorin induzierten Hypothermie entgegen.
Für jede Dosis der Verbindung berechnet man die prozentuale Hemmung der Hypothermie.

[11] = 1 mg/kg i.p., 30 min before L-5 HTP 4 mg/kg i.p.
[12] = mouse, reaction time, 8 mg/kg i.p., plate 56,6°C
[13] = 8 mg/kg i.p., 30 min before L-5 HTP 4 mg/kg i.p.
[14] = mouse, Tabelle 5a, 16 mg/kg, without Naloxon
[15] = mouse, reaction time, 16 mg/kg i.p., plate 56,6°C, 16 mg/kg
[16] = mouse, reaction time, 32 mg/kg i.p., plate 56,6°C

Compound: c1ccc2c(CCC3CCNCC3)c[nH]c2c1 [Indalpin, reference compound]
- Tremor [1, 11]: 2,0 ± 0,7
- ruckartige Kopfbewegungen [1, 11]: 4,1 ± 0,7 p < 0,01
- Pfotenlecken [2, 12]: 8,4 ± 1,2 p < 0,02 Sekunden
- Sprünge [2, 12]: 132 ± 12 p ± 0,01 Sekunden

Compound: CN(C)CCCN1c2ccccc2CCc2ccccc21 [IMIPRAMIN]
- minimal effective dose ([3]; ip, Tabelle Ib, read-out: Erste wirksame Dosis Yohimbin): 16 mg/kg
- minimal effective dose ([4]; Tabelle Ib, read-out: Erste wirksame Dosis Apomorphin 16 mg.kg^-1 s.c.): 4 mg/kg
- Motilität ([5]; i.p., direction of change, Tabelle Ib): ↘
- minimal effective dose ([5]; ip, Tabelle Ib, read-out: Erste wirksame Dosis Motilität): 128 mg/kg
- % Antagonismus ([6]; 16 mg/kg i.p.): 37%
- Dauer der Unbeweglichkeit ([6]; 16 mg/kg i.p.): 112 ± 23 p < 0,05 Sekunden
- minimal effective dose ([7]; Tabelle Ib, read-out: Erste wirksame Dosis Reserpin): 2 mg/kg
- minimal effective dose ([8]; Tabelle Ib, read-out: Erste wirksame Dosis T.S.T. Maus): 1 to 4 mg/kg
- % Antagonismus ([8]; 1 mg/kg i.p.): 31%
- Dauer der Unbeweglichkeit ([8]; 1 mg/kg i.p.): 70 ± 17 Sekunden
- % Antagonismus ([8]; 2 mg/kg i.p.): 42%
- Dauer der Unbeweglichkeit ([8]; 2 mg/kg i.p.): 59 ± 8 p < 0,01 Sekunden
- % Antagonismus ([8]; 4 mg/kg i.p.): 48%
- Dauer der Unbeweglichkeit ([8]; 4 mg/kg i.p.): 53 ± 11 p < 0,01 Sekunden
- % Antagonismus ([8]; 8 mg/kg i.p.): 58%
- Dauer der Unbeweglichkeit ([8]; 8 mg/kg i.p.): 48 ± 10 p < 0,01 Sekunden
- % Antagonismus ([8]; 16 mg/kg i.p.): 73%
- Dauer der Unbeweglichkeit ([8]; 16 mg/kg i.p.): 28 ± 7 p < 0,001 Sekunden
- minimal effective dose [9]: 8 mg/kg

Compound: Clc1ccc([C@@H]2CCNC[C@H]2c2ccccc2)cc1Cl [15 (HCl-Salz)]
- Erste wirksame Dosis Yohimbin ([3]; mouse, i.p., only or lowest value of the cell): 1 mg/kg
- minimal effective dose ([4]; Mus musculus, read-out: Erste wirksame Dosis Apomorphin 16 mg/kg, mouse, i.p., only or lowest value of the cell): 1 mg/kg
- Aktimetrie ([5]; mouse, direction of change of motor activity): ↗
- minimal effective dose [10]: 0.25 mg/kg
- minimal effective dose ([7]; Mus musculus, read-out: Erste wirksame Dosis Reserpin, mouse, i.p., only or lowest value of the cell): 1 mg/kg

Compound: c1ccc([C@@H]2CCNC[C@H]2c2ccccc2)cc1 (relative stereo) [DPPT, trans-3,4-Diphenylpiperidin]
- minimal effective dose ([1]; ip, read-out: Zunahme der durch L-5 HTP induzierten ruckartigen Kopfbewegungen, Effekt gesichert bei): 8 mg/kg
- Tremor [1, 13]: 1,3 ± 0,4
- ruckartige Kopfbewegungen [1, 13]: 4,7 ± 0,6 p < 0,01
- Tremor ([1]; L-5 HTP potentiation): verstärkt
- stimulierender Effekt an der Maus ([5]; mouse, 16 mg/kg): keinen stimulierenden Effekt
- minimal effective dose at 16 mg/kg ([6]; ip, Porsolt test, effect stronger at 16 mg/kg, read-out: bedeutsame Abnahme in der Dauer der Unbeweglichkeit, Dosis): ≥ 8 mg/kg
- % Antagonismus ([6]; 8 mg/kg i.p.): 28%
- Dauer der Unbeweglichkeit ([6]; 8 mg/kg i.p.): 141 ± 16 p < 0,02 Sekunden
- % Antagonismus ([6]; 16 mg/kg i.p.): 47%
- Dauer der Unbeweglichkeit ([6]; 16 mg/kg i.p.): 94 ± 17 p < 0,001 Sekunden
- minimal effective dose ([8]; Mus musculus, read-out: bedeutsame Verkürzung der Dauer der Unbeweglichkeit, Dosis): ≥ 2 mg/kg
- % Antagonismus ([8]; 1 mg/kg i.p.): 25%
- Dauer der Unbeweglichkeit ([8]; 1 mg/kg i.p.): 58 ± 13 Sekunden
- % Antagonismus ([8]; 2 mg/kg i.p.): 51%
- Dauer der Unbeweglichkeit ([8]; 2 mg/kg i.p.): 38 ± 7 p < 0,01 Sekunden
- % Antagonismus ([8]; 4 mg/kg i.p.): 79%
- Dauer der Unbeweglichkeit ([8]; 4 mg/kg i.p.): 16 ± 2 p < 0,001 Sekunden
- % Antagonismus ([8]; 16 mg/kg i.p.): 84%
- Dauer der Unbeweglichkeit ([8]; 16 mg/kg i.p.): 12 ± 3 p < 0,001 Sekunden
- minimal effective dose ([2]; Mus musculus, ip, 0.5 h, read-out: Effekt statistisch gesichert bei): 16 mg/kg
- Pfotenlecken [2, 14]: 10,0 ± 1,5 p < 00,1 Sekunden and 7,9 ± 0,6 p < 0,02 Sekunden
- Sprünge [2, 14]: 141 ± 12 p < 0,01 Sekunden and 125 ± 14 p < 0,01 Sekunden
- schadenverhütender Effekt, Wechselwirkung mit Naloxon ([2]; mouse, hot plate): unterliegt Antagonismus durch Naloxon
- Pfotenlecken [2, 12]: 7,0 ± 0,9 Sekunden
- Sprünge [2, 12]: 103 ± 10 Sekunden
- Pfotenlecken [2, 15]: 8,7 ± 1,2 p < 0,02 Sekunden and 9,9 ± 2,0 Sekunden
- Sprünge [2, 15]: 154 ± 11 p < 0,001 Sekunden and 135 ± 14 p < 0,05 Sekunden
- Pfotenlecken [2, 16]: 13,0 ± 1,7 p < 0,01 Sekunden
- Sprünge [2, 16]: 193 ± 17 p < 0,001 Sekunden
